# Data reported in patent US20050080140A1, “Method for treating or preventing inflammatory disorders” (AnGes MG, Inc., priority 2003, published 2005).
# How the values were obtained:
# HEK-293 cells = test: cDNA microarray analysis of cells expressing intracellular PGI2 (PGISwt vs inactive PGISC441A); type: cell-based, human; conditions: ratio of PGISwt to PGISC441A, 36 h
# Protocol: HEK-293 cells (1.2×10^4 cells/cm^2) were transfected with expression vector for PGISwt or PGISC441A using LipofectAMINE (Invitrogen) and maintained in DMEM containing 10% FBS, 2 mM L-glutamine, 100 U/ml penicillin and […] streptomycin for 36 h. Poly(A+) mRNA (1.5 μg) was prepared from3×10^6 cells using Isogen (Nippon Gene) and Oligotex-dT30 super mRNA purification kit (Takara, Tokyo, Japan). Samples were analyzed by gene expression microarray (GEM) DNA tip containing 9,182 human cDNA clones (HUMAN UniGEM V Ver2.0, IncyteGenomics, Palo Alto, Calif.). Conversion of poly(A+) mRNA to cDNA with incorporation of Cy3- or Cy5-labeled deoxynucleotide-triphosphates (dNTPs), hybridization to arrays coated on glass, quality control and normalization were performed by IncyteGenomics. All data analyses were performed using an average fold change of two assays, and data were expressed as the ratio of PGISwt to PGISC441A.
# In order to identify the downstream mediators of intracellular PGI2-PPARδ signaling pathway, a cDNA microarray analysis of human cells expressing intracellular PGI2 was performed. Based on precious studies of the inventors (Hatae et al., J. Biol. Chem. (2001) 276: 46260-7), a human embryonic kidney cell line (HEK-293) transfected with the expression vector for wild-type PGIS (PGISwt) was used to achieve endogenous expression of intracellular PGI2.
# COX-2 gene = test: RT-PCR analysis of COX-2 mRNA; type: cell-based, human; conditions: HUVEC, combination of TNF-α (1 ng/ml) and IL-1β (20 ng/ml), FIG. 5
# Protocol: For analysis of IL-13, human vascular endothelial cells (1.2×10^4 cells/cm^2) were stimulated with cPGI (10 μM) for 12 h, and total RNA was prepared from stimulated cells with Isogen (Nippon Gene). For analysis of COX-2, human vascular endothelial cells (1.2×10^4 cells/cm^2) were pretreated with TNF-α (1 ng/ml) and IL-1b (20 ng/ml) for 1 h, and then treated with cPGI (0, 10 μM), anti-human IL-13 monoclonal antibody (0, 0.5 μg/ml) and control IgG (0, 0.5 μg/ml) for 12 h to prepare total RNA. The total RNA (0.5 μg) was used for analysis by SuperScript RT-PCR system (Invitrogen) according to the manufacturer's instructions. The oligonucleotide primers used were IL-13-s (5′-[…]-3′ (SEQ ID NO: 6); sense) and IL-13-as (5′-[…]-3′ (SEQ ID NO: 7); antisense) for human IL-13, β-actin-s (5′-[…]-3′ (SEQ ID NO: 8); sense) and β-actin-as (5′-[…]-3′ (SEQ ID NO: 9); antisense) for human β-actin, and COX-2-s (5′-[…]-3′ (SEQ ID NO: 10); sense) and COX-2-as (5′-[…]-3′ (SEQ ID NO: 11); antisense) for human COX-2. For each PCR amplification, 1 μl of cDNA was used in a 50 μl reaction. Reverse transcription-PCR (RT-PCR) for β-actin (25 cycles) was used as an internal control for mRNA abundance. For IL-13 and COX-2 genes, the number of cycles ranged from 25 to 45. […] Samples were normalized based on equivalent expression of β-actin.
# [1] = tested on: adhesion between human vascular endothelial cells and monocytic leukocyte U937 cells; test: Adherence assay of U937 cells to endothelial monolayers; type: cell-based; conditions: HUVEC, 24 h
# Protocol: HUVEC (2.5×10^4 cells/cm^2) were cultured in 12-well plates. After 24 h, confluent monolayers were used for adherence assays. Monolayers were preincubated in EGM-2 containing 2% FBS, 0 or 10 ng/ml TNF-α, 0 or 10 ng/ml IL-13 and 0 or 10 μM cPGI with or without anti-IL-13 monoclonal antibody (0.5 μg/ml) at 37° C. for 0 to 24 h. Human monocyte leukocyte U937 cells were cultured in RPMI 1640 (Gibco-Invitrogen) containing 10% FBS, 100 U/ml penicillin and […] streptomycin , labeled with 2.5 μM calcein-AM (Molecular Probes, Eugene, Oreg.) at room temperature for 45 min, washed and resuspended in serum-free EGM-2. The calcein-labeled U937 cells (8×10^4 cells/well) were added to pretreated endothelial cells and incubated with cPGI (0, 10 μM), recombinant IL-13 (0, 10 ng/ml) and anti-IL-13 monoclonal antibody (0, 0.5 μg/ml). U937 cells were allowed to adhere to pretreated endothelial cells for 30 min at 37° C. Adherence was assessed with a fluorescence image analyzer (FLA-2000; Fujifilm, Tokyo, Japan). Plates were scanned before and after washing for total and adherent cells, respectively, and relative adherence was calculated (fold of control).
# PPRE (PPARδ activation) = test: PPREx3-luciferase reporter assay; type: cell-based, human; conditions: HUVEC treated with TNF-α 0-10 ng/ml, 24 h, FIG. 4B
# Protocol: Primary cultured human umbilical vein endothelial cells (HUVEC) and human aortic endothelial cells (HAEC) were obtained from Kurabo Co. Ltd. (Tokyo, Japan) and were cultured in EGM-2 growth medium supplemented with 2% fetal bovine serum (FBS) and a mixture of growth factors according to the supplier's instructions. Total RNA from the cells in culture was prepared with Isogen (Nippon Gene, Tokyo, Japan). Human embryonic kidney HEK-293 cells were cultured in DMEM containing 10% FBS, 2 mM L-glutamine, 100 U/ml penicillin and […] streptomycin as described previously (Hatae et al., J. Biol. Chem. (2001) 276: 46260-7). […] HEK-293 cells were transfected with DNA using lipofectAMINE (Invitrogen, Carlsbad, Calif.) as described previously (Hatae et al., J. Biol. Chem. (2001) 276: 46260-7). Human vascular endothelial cells were transfected with TransIT LT-1 (PanVera Co., Madison, Wis.). Transfections were performed at a ratio of 1 μg of DNA to 3.0 μl of the reagents, and cells were incubated in serum-free EGM-2 at 37° C. for 5 h. Subsequently, cells were grown in fresh EGM-2 containing 2% FBS and a mixture of growth factors for 12 h before analysis. For reporter assay, human vascular endothelial cells (1.2×10^4 cells/cm^2) were cotransfected with 0.2 μg of the PPREx3-luciferase reporter vector and 0.1 μg of β-galactosidase expression vector by use of TransIT LT-1. After 17 h of transfection, cells were washed with PBS, incubated in EGM-2 containing 2% FBS and cPGI (0-100 μM) for 24 h at 37° C., and subjected to luciferase assay as described previously (Hatae et al., J. Biol. Chem. (2001) 276: 46260-7). The luciferase activity of the extract was normalized to β-galactosidase activity.
# [2] = tested on: endogenous PGI2 production; test: PGI2 assay (6-keto-PGF1α ELISA); type: cell-based, human; conditions: HUVEC, TNF-α 0, 0.1, 1 or 10 ng/ml, 24 h, FIG. 4A
# Protocol: (§1) Human vascular endothelial cells (1.2×10^4 cells/cm^2) were cultured in EGM-2 containing 2% FBS and several concentrations of cPGI with or without TNF-α for 24 h. Incubation media were collected and stored at −80° C. before assay. Amounts of IL-13 were measured with human IL-13 ELISA system (Amersham Pharmacia Biotech, Buckinghamshire, UK) and amounts of PGI2 were measured as the amounts of 6-keto-PGI1α, a stable metabolite of PGI2, with 6-keto-PGI1α ELISA kit (Cayman Chemical Co., Ann Arbor, Mich.) according to the manufacturers' instructions.
# siRNA duplexes with the following sense and antisense sequences were made: PGIS1, 5′-[…]-3′ (SEQ ID NO: 12; sense) and 5′-[…]-3′ (SEQ ID NO: 13; antisense); PGIS2, 5′-[…]-3′ (SEQ ID NO: 14; sense) and 5′-[…]-3′ (SEQ ID NO: 15; antisense); PGIS3, 5′-[…]-3′ (SEQ ID NO: 16; sense) and 5′-[…] (SEQ ID NO: 17; antisense); and PGIS4, 5′-[…]-3′ (SEQ ID NO:, 18; sense) and 5′-[…]-3′ (SEQ ID NO: 19; antisense). siRNAs were synthesized and annealed by Dharmacon Research Inc. (Lafayette, CO). […] Microsomal fractions of the cells were prepared and analyzed by immunoblotting with anti-PGIS P4 polyclonal antibody as described previously (Hatae et al., J. Biol. Chem. (2001) 276: 46260-7). […] The incubation media were collected, and amounts of 6-keto-PGI1α or IL-13 were measured with ELISA kit.
# IL-13 = IL-13 ELISA of culture medium of human vascular endothelial cells; type: cell-based; conditions: HUVEC treated with TNF-α 0-10 ng/ml, 24 h, FIG. 4C
# Protocol: as §1
# (§2) siRNA duplexes with the following sense and antisense sequences were made: PGIS1, 5′-[…]-3′ (SEQ ID NO: 12; sense) and 5′-[…]-3′ (SEQ ID NO: 13; antisense); PGIS2, 5′-[…]-3′ (SEQ ID NO: 14; sense) and 5′-[…]-3′ (SEQ ID NO: 15; antisense); PGIS3, 5′-[…]-3′ (SEQ ID NO: 16; sense) and 5′-[…] (SEQ ID NO: 17; antisense); and PGIS4, 5′-[…]-3′ (SEQ ID NO:, 18; sense) and 5′-[…]-3′ (SEQ ID NO: 19; antisense). siRNAs were synthesized and annealed by Dharmacon Research Inc. (Lafayette, CO). Control non-silencing siRNA, a duplex of sense (5′-UUCUCCGAACGUGUCACGUdTdT-3′; SEQ ID NO: 20) and antisense (5′-ACGUGACACGUUCGGAGAAdTdT-3′; SEQ ID NO: 21) sequences, was purchase from Qiagen (Valencia, Calif.). The cells were initially transfected with 200 pmol per well of the annealed RNA mixture or the same amount of control siRNA using LipofectAMINE2000 (Invitrogen), and 12 h later secondly transfected with the same amount of siRNAs using HVJ-liposome transfection kit (GenomeONE; Ishihara Sangyo, Osaka, Japan) according to the manufacturers' instructions. The cells were retransfected with the siRNAs every 3 days using LipofectAMINE2000 and HVJ-liposome, and used for analyses 10 days after transfection. Microsomal fractions of the cells were prepared and analyzed by immunoblotting with anti-PGIS P4 polyclonal antibody as described previously (Hatae et al., J. Biol. Chem. (2001) 276: 46260-7). The cells treated with siRNAs for 10 days were cultured in fresh EGM-2 containing 2% FBS and TNF-α (0, 10 ng/ml). with or without cPGI (10 μM) for 24 h. The incubation media were collected, and amounts of 6-keto-PGI1α or IL-13 were measured with ELISA kit.
# PGIS = test: RNAi silencing of PGIS, immunoblotting with anti-PGIS antibody; type: cell-based, human; conditions: HUVEC, siRNA treatment for 10 days, FIG. 6A
# Excerpt: as §2, with “The cells were retransfected with the siRNAs every 3 days using LipofectAMINE2000 and HVJ-liposome, and used for analyses 10 days after transfection.” left out, “The cells treated with siRNAs for 10 days were cultured in fresh EGM-2 containing 2% FBS and TNF-α (0, 10 ng/ml). with or without cPGI (10 μM) for 24 h.” left out
molecule,measurement,setting,value
"CCCCC[C@H](O)/C=C/[C@@H]1[C@H]2C/C(=C/CCCC(=O)O)O[C@H]2C[C@H]1O [PGI2, prostacyclin]","Differential expression, IL-13 (NM_002188)",HEK-293 cells,+11.0
same,"Differential expression, Sjogren syndrome antigen (BF897247)",HEK-293 cells,+2.8
same,"Differential expression, aldehyde dehydrogenase 1 family, member A1 (AI050734)",HEK-293 cells,+2.5
same,"Differential expression, butyrophilin, subfamily 3, member A2 (AA482308)",HEK-293 cells,+2.7
same,"Differential expression, isopentenyl-diphosphate delta isomerase (BF698441)",HEK-293 cells,+2.9
same,"Differential expression, mal T-cell differentiation protein (NM_022439)",HEK-293 cells,+7.0 mal
"IL-1: Recombinant human IL-1β, proinflammatory cytokine",expression of COX-2 mRNA,COX-2 gene,induced
IL-13: recombinant human IL-13,TNF-α-induced monocytic leukocyte-endothelial cell adhesion,"[1]; TNF-α 10 ng/ml plus antibody 0.5 μg/ml, cPGI 10 μM or IL-13 10 ng/ml, FIG. 4D lanes 3-5",inhibited
TNF-α,relative luciferase activity of reporter vector containing PPRE,PPRE (PPARδ activation),increased
same,expression of COX-2 mRNA,COX-2 gene,induced
same,endogenous PGI2 production,[2],significantly induced
same,adhesion between U937 cells and endothelial cells,"[1]; TNF-α 10 ng/ml alone, FIG. 4D lanes 1 and 2",increase adhesion
same,production of IL-13,IL-13,increased
"control siRNA: Control non-silencing siRNA duplex (SEQ ID NO: 20, 21) from Qiagen (chain 1 UUCUCCGAACGUGUCACGUNN; chain 2 ACGUGACACGUUCGGAGAANN; listed as RNA, chemistry not fully specified)",endogenous expression of PGIS (Western analysis),PGIS,no effect
